Assay results published in US20150272939A1, “Identification of Small Molecule Inhibitors of Jumonji AT-Rich Interactive Domain 1A (JARID1A) and 1B (JARID1B) Histone Demethylase” (Yale University, priority 2012, published 2015).
“And” between values parts separate entries of the source, which are not always exact repeats. Equal values may be shown once. Where a name gives a salt, the structure may show the parent alone. One block for each molecule: values may come before it.

How the values were obtained:
[1] = molecular target: T1, JARID1B (Homo sapiens, UniProt Q9UGL1); test: FLAG-JARID1B histone demethylase assay with AlphaScreen detection (HTS and dose response); assay type: biochemical; conditions: for inhibition at 20 µM / Inhibitory effect (percent): high-throughput screen, compound 20 μM, standard demethylase conditions (10 μM α-KG, 50 μM Fe (II)); for inhibition at 20 µM: read-out: Inhibitory effect (percent); for Validation result of HTS active: effect of the compound in the JARID1B AlphaScreen demethylase assay / Assay Signal (percent): validation of HTS actives; for Validation result of HTS active: effect of the compound in the JARID1B AlphaScreen demethylase assay: total signal before subtraction of artifact signal; for Assay − Artifact Signal (percent): assay signal minus artifact signal; for Assay Signal (percent): effect of compound in JARID1B AlphaScreen assay;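 as to Assay Signal (percent): compound tested at 20 µM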;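 as to Assay − Artifact Signal (percent): compound tested at 20 µM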;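 as to all read-outs here: FLAG-tagged JARID1B at 4 nM acting on a biotinylated H3K4me3 peptide, demethylation read by AlphaScreen luminescence, with hits checked against bio-H3K4me2 without enzyme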
T1 construct: The FLAG tagged full length JARID1B enzyme was expressed in Sf21 insect cells using FLAG-JARID1B baculoviruses; FLAG (N); made in house; host or cells: Sf21 insect cells (baculovirus)
T1 sequence (Q9UGL1 whole entry): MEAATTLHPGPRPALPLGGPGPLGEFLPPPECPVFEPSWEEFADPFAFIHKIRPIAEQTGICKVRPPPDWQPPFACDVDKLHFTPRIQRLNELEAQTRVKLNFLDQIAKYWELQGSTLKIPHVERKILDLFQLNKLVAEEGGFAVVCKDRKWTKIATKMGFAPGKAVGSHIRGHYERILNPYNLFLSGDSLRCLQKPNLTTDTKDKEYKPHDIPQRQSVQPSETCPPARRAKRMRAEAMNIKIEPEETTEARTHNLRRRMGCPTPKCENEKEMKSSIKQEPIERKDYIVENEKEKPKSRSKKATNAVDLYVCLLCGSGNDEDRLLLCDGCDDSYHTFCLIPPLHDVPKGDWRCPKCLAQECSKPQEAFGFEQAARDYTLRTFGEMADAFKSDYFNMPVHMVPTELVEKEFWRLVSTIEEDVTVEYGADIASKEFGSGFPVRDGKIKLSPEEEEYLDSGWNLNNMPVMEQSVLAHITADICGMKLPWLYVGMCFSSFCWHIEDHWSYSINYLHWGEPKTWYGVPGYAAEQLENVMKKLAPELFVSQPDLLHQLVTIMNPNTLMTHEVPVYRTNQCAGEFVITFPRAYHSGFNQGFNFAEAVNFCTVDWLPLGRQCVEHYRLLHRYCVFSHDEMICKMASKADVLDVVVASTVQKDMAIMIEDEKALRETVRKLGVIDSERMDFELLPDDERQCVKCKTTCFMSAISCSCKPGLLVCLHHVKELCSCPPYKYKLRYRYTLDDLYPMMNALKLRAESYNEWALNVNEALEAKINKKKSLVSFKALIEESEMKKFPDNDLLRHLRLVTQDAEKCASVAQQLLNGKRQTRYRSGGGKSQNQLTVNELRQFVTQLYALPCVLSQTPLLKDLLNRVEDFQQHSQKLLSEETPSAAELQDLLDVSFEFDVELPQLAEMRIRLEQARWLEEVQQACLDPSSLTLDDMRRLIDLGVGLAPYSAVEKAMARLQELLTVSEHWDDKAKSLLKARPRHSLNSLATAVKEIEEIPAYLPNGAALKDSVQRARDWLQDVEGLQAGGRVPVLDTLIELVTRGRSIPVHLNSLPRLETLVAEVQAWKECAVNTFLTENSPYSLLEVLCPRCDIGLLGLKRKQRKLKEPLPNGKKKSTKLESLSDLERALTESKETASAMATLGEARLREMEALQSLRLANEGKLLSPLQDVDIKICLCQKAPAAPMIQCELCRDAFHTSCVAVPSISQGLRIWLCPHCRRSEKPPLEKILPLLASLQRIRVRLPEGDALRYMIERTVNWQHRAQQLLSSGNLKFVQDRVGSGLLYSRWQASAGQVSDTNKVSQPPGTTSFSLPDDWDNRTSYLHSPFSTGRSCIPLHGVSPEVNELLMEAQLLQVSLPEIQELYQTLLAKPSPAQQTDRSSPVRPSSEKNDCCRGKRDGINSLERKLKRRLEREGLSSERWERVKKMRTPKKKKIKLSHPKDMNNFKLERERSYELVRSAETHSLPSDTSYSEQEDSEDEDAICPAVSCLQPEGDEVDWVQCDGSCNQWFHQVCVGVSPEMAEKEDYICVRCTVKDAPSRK

[2] = AlphaScreen counterscreen against bio-H3K4me2 peptide in the absence of enzyme (artifact signal); conditions: for Artifact signal: effect of the compound when it is incubated with bio-H3K4me2 peptide: counterscreen, no enzyme; for Artifact Signal (percent): effect of the compound when incubated with bio-H3K4me2 peptide (counterscreen, no enzyme);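 as to all read-outs here: counterscreen run without enzyme against bio-H3K4me2 peptide to remove false positive hits from the JARID1 demethylase AlphaScreen screen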

- Assay − Artifact Signal (percent) [1]: 18.12%
- inhibition at 20 µM [1]: 34%
- Assay Signal (percent) [1]: 13.28%
- Artifact Signal (percent) [2]: −4.85%
Structure (SMILES): Oc1cc(O)cc(/C=C/c2ccc(O)c(O)c2)c1 [YU154843, PICEATANNOL, reference compound]

- inhibition at 20 µM [1]: 80.3%
- Validation result of HTS active: effect of the compound in the JARID1B AlphaScreen demethylase assay [1]: 8.94
- Artifact signal: effect of the compound when it is incubated with bio-H3K4me2 peptide [2]: 3.92
Structure (SMILES): COc1cccc2c1C(=O)c1c(O)c3c(c(O)c1C2=O)C[C@@](O)(C(=O)CO)C[C@@H]3O[C@H]1C[C@H](N)[C@H](O)[C@H](C)O1.Cl (stereo in doubt) [YU039629, DOXORUBICIN HYDROCHLORIDE, reference compound]

- Assay − Artifact Signal (percent) [1]: 9.70%
- Inhibitory effect (percent) [1]: 61.25% and 40.88%
- Assay Signal (percent) [1]: 12.08%
- Validation result of HTS active: effect of the compound in the JARID1B AlphaScreen demethylase assay [1]: 37.80
- Artifact signal: effect of the compound when it is incubated with bio-H3K4me2 peptide [2]: 31.44
- Artifact Signal (percent) [2]: 2.37%
Structure (SMILES): O=c1oc2c(O)c(O)cc3c(=O)oc4c(O)c(O)cc1c4c23 [YU034320, ELLAGIC ACID, reference compound]

- inhibition at 20 µM [1]: 96.7%
- Validation result of HTS active: effect of the compound in the JARID1B AlphaScreen demethylase assay [1]: 0.53
- Artifact signal: effect of the compound when it is incubated with bio-H3K4me2 peptide [2]: −2.69
Structure (SMILES): CN1C(=O)c2ccc(NC(=O)c3ccc4c(c3)OCO4)cc2C1=O [YU152920]

- Assay − Artifact Signal (percent) [1]: 16.81%
- inhibition at 20 µM [1]: 30.8%
- Assay Signal (percent) [1]: 12.98%
- Artifact Signal (percent) [2]: −3.82%
Structure (SMILES): COc1cc(C(=S)N2CC(C)OC(C)C2)cc(OC)c1O (centres unmarked) [YU151441]

- Assay − Artifact Signal (percent) [1]: 17.87%
- inhibition at 20 µM [1]: 53.7%
- Assay Signal (percent) [1]: 23.08%
- Artifact Signal (percent) [2]: 5.21%
Structure (SMILES): N#CC(C#N)=Cc1cc(O)c(O)c(O)c1 [YU154832, TYRPHOSTIN 25, reference compound]

- Assay − Artifact Signal (percent) [1]: 18.39%
- inhibition at 20 µM [1]: 36.9%
- Assay Signal (percent) [1]: 27.61%
- Artifact Signal (percent) [2]: 9.22%
Structure (SMILES): Oc1cccc(C(=S)N2CCN(Cc3ccccc3)CC2)c1 [YU151559]

- Assay − Artifact Signal (percent) [1]: 52.71%
- inhibition at 20 µM [1]: 65.8%
- Assay Signal (percent) [1]: 58.08%
- Artifact Signal (percent) [2]: 5.37%
Structure (SMILES): C[C@@H]1O[C@@H](OC[C@H]2OC(OC3=C(c4ccc(O)c(O)c4)Oc4cc(O)cc(O)c4C3O)[C@H](O)[C@@H](O)[C@@H]2O)[C@H](O)[C@H](O)[C@H]1O (some centres unmarked) [YU033654, RUTOSIDE (rutin), reference compound]

- Assay − Artifact Signal (percent) [1]: 14.69%
- inhibition at 20 µM [1]: 44.5%
- Assay Signal (percent) [1]: 21.70%
- Artifact Signal (percent) [2]: 7.01%
Structure (SMILES): CCC(=O)Nc1cnc(N2CCN(c3ccc(Cl)cc3)CC2)c(C(=O)O)c1 [YU208250]

- Assay − Artifact Signal (percent) [1]: 58.49%
- inhibition at 20 µM [1]: 89.4%
- Assay Signal (percent) [1]: 66.78%
- Artifact Signal (percent) [2]: 8.29%
Structure (SMILES): CN1CCc2cccc3c2C1Cc1ccc(O)c(O)c1-3 (centres unmarked) [YU033696, APOMORPHINE HYDROCHLORIDE, reference compound]

Continued, molecule first:

Structure (SMILES): COC(=O)Nc1ccc(S(=O)(=O)N2CCCCCC2)cc1 [YU151614]
- inhibition at 20 µM [1]: 85.5%
- Validation result of HTS active: effect of the compound in the JARID1B AlphaScreen demethylase assay [1]: −1.67
- Artifact signal: effect of the compound when it is incubated with bio-H3K4me2 peptide [2]: −4.92

Structure (SMILES): Cc1ccsc1CNn1cnnc1S [YU145432]
- Assay − Artifact Signal (percent) [1]: 46.83%
- inhibition at 20 µM [1]: 33.3%
- Assay Signal (percent) [1]: 48.50%
- Artifact Signal (percent) [2]: 1.67%

Structure (SMILES): C/C1=C2/[N-][C@H]([C@H](CC(N)=O)[C@@]2(C)CCC(=O)NC[C@@H](C)OP(=O)([O-])O[C@H]2[C@@H](O)[C@@H](n3cnc4cc(C)c(C)cc43)O[C@@H]2CO)[C@]2(C)N=C(/C(C)=C3N=C(/C=C4N=C1[C@@H](CCC(N)=O)C\4(C)C)[C@@H](CCC(N)=O)[C@]\3(C)CC(N)=O)[C@@H](CCC(N)=O)[C@]2(C)CC(N)=O.[Co] [YU034137, COBALAMINE, reference compound]
- Assay − Artifact Signal (percent) [1]: 28.34%
- Inhibitory effect (percent) [1]: 63.90%
- Assay Signal (percent) [1]: 27.06%
- Artifact Signal (percent) [2]: 1.27%

Structure (SMILES): Cl.Cn1cccc1CNCc1ccncc1 [YU145853]
- Assay − Artifact Signal (percent) [1]: 57.65%
- inhibition at 20 µM [1]: 76.6%
- Assay Signal (percent) [1]: 66.64%
- Artifact Signal (percent) [2]: 8.99%

Structure (SMILES): O=C(NCc1ccccn1)c1ccc(NC(=O)c2ccco2)cc1 [YU152560]
- inhibition at 20 µM [1]: 41.5%
- Validation result of HTS active: effect of the compound in the JARID1B AlphaScreen demethylase assay [1]: −1.53
- Artifact signal: effect of the compound when it is incubated with bio-H3K4me2 peptide [2]: −6.86

Structure (SMILES): Clc1ccc2nc(-c3ccccn3)c(Nc3ccc4c(c3)OCCO4)n2c1 [YU173004]
- Assay − Artifact Signal (percent) [1]: 48.80%
- inhibition at 20 µM [1]: 94%
- Assay Signal (percent) [1]: 49.67%
- Artifact Signal (percent) [2]: 0.87%

Structure (SMILES): Cc1cc(C(=O)Nc2cccc(Cn3cccn3)c2)cs1 [YU149922]
- inhibition at 20 µM [1]: 56.7%
- Validation result of HTS active: effect of the compound in the JARID1B AlphaScreen demethylase assay [1]: −6.24
- Artifact signal: effect of the compound when it is incubated with bio-H3K4me2 peptide [2]: −8.78

Structure (SMILES): CC(=O)Nc1ccc(N2CCC(C(N)=O)(N3CCCCC3)CC2)c(C(=O)O)c1 [YU208195]
- inhibition at 20 µM [1]: 52.9%
- Validation result of HTS active: effect of the compound in the JARID1B AlphaScreen demethylase assay [1]: 14.20
- Artifact signal: effect of the compound when it is incubated with bio-H3K4me2 peptide [2]: 8.81

Structure (SMILES): S=C(Nc1cccc(Cl)c1Cl)Nn1cnnc1 [YU149002]
- Assay − Artifact Signal (percent) [1]: 12.28%
- inhibition at 20 µM [1]: 37.9%
- Assay Signal (percent) [1]: 15.58%
- Artifact Signal (percent) [2]: 3.30%

Structure (SMILES): CCCCC(=O)Nc1ccc(N2CCC(C(N)=O)(N3CCCCC3)CC2)c(C(=O)O)c1 [YU208194]
- inhibition at 20 µM [1]: 63.8%
- Validation result of HTS active: effect of the compound in the JARID1B AlphaScreen demethylase assay [1]: 17.11
- Artifact signal: effect of the compound when it is incubated with bio-H3K4me2 peptide [2]: 11.63

Structure (SMILES): O=C(O[C@@H]1Cc2c(O)cc(O)cc2O[C@@H]1c1cc(O)c(=O)c2c(O)c(O)cc([C@H]3Oc4cc(O)cc(O)c4C[C@H]3OC(=O)c3cc(O)c(O)c(O)c3)c2c1)c1cc(O)c(O)c(O)c1 (stereo in doubt) [YU155100, THEAFLAVIN DIGALLATE, reference compound]
- inhibition at 20 µM [1]: 105%
- Validation result of HTS active: effect of the compound in the JARID1B AlphaScreen demethylase assay [1]: 104.28
- Artifact signal: effect of the compound when it is incubated with bio-H3K4me2 peptide [2]: 98.76

Structure (SMILES): C=CC1=C(C(=O)O)N2C(=O)[C@@H](NC(=O)/C(=N\OCC(=O)O)c3csc(N)n3)[C@H]2SC1 [YU039791, CEFIXIME TRIHYDRATE, reference compound]
- inhibition at 20 µM [1]: 105%
- Validation result of HTS active: effect of the compound in the JARID1B AlphaScreen demethylase assay [1]: 104.49
- Artifact signal: effect of the compound when it is incubated with bio-H3K4me2 peptide [2]: 96.65

Structure (SMILES): NCCc1ccc(O)c(O)c1 [YU033802, DOPAMINE HYDROCHLORIDE, reference compound]
- Assay − Artifact Signal (percent) [1]: 32.68%
- Inhibitory effect (percent) ([1]; HYDROCHLORIDE): 46.86%
- inhibition at 20 µM [1]: 51.3%
- Assay Signal (percent) [1]: 42.68%
- Validation result of HTS active: effect of the compound in the JARID1B AlphaScreen demethylase assay [1]: −1.42
- Artifact signal: effect of the compound when it is incubated with bio-H3K4me2 peptide [2]: −2.83
- Artifact Signal (percent) [2]: 10.00%

Structure (SMILES): CC(=O)NNC(=O)c1ccncc1 [YU129955]
- Assay − Artifact Signal (percent) [1]: 96.89%
- inhibition at 20 µM [1]: 88.7%
- Assay Signal (percent) [1]: 92.06%
- Artifact Signal (percent) [2]: −4.84%

Structure (SMILES): Cc1ccc(S(=O)(=O)C=CC#N)cc1 (single isomer, unassigned) [YU154885, BAY 11-7082, reference compound]
- Assay − Artifact Signal (percent) [1]: 41.45%
- inhibition at 20 µM [1]: 43.6%
- Assay Signal (percent) [1]: 35.57%
- Artifact Signal (percent) [2]: −5.88%

Structure (SMILES): C[C@](N)(Cc1ccc(O)c(O)c1)C(=O)O [YU033903, METHYLDOPA, reference compound]
- Assay − Artifact Signal (percent) [1]: 30.75%
- inhibition at 20 µM [1]: 69.1%
- Assay Signal (percent) [1]: 50.21%
- Artifact Signal (percent) [2]: −0.54%

Structure (SMILES): O=C(O)c1cc(N(Cc2ccccc2O)Cc2cc(O)ccc2O)ccc1O [YU154829, LAVENDUSTIN A, reference compound]
- Assay − Artifact Signal (percent) [1]: 30.24%
- inhibition at 20 µM [1]: 50.3%
- Assay Signal (percent) [1]: 38.57%
- Artifact Signal (percent) [2]: 8.32%

Structure (SMILES): CN(C)c1ccc(C(=C2C=CC(=[N+](C)C)C=C2)c2ccc(N(C)C)cc2)cc1 [YU033841, GENTIAN VIOLET, reference compound]
- inhibition at 20 µM [1]: 106%
- Validation result of HTS active: effect of the compound in the JARID1B AlphaScreen demethylase assay [1]: 96.28
- Artifact signal: effect of the compound when it is incubated with bio-H3K4me2 peptide [2]: 93.38
